Experimental data published in patent US20260284005A1, “INHIBITING MITOGEN-ACTIVATED PROTEIN (MAP)/ERK KINASE (MEK)1 AND MEK2 AND RELATED METHODS OF TREATMENT” (priority 2023, published 2026).
Read-outs that look alike come from different tables or passages of the source.

Assays:
[1] = system: tumor models (cell lines); experiment: Humanized 3D tumor growth assay (3D-TGA), tumor model panel / other cell lines; assay type: cell-based, human; settings: Homo sapiens, agent alone
Excerpt: The humanized 3D tumor growth assay (3D-TGA) is an extracellular matrix (ECM)-based, 3D tumor model that more faithfully mimics the human tumor microenvironment (TME) with the goal of improving translational fidelity to patients. See Casneuf T, et al., “Interleukin-6 is a potential therapeutic target in interleukin-6 dependent, estrogen receptor-α-positive breast cancer,” Breast Cancer (Dove Med Press). […] MEK inhibition in the 3D-TGA. […]
All cell lines were validated by IDEXX upon receipt and assay setup. See Appendix for full cell line list.
(§1) Cells were seeded in 3D cultures in a black-walled, clear-bottom, non-tissue culture treated, 384-well plate (3000 cells per well) using a 1:1 mixture of BME and a custom media and grown in a humidified incubator with 5% CO2 and 5% O2, which approximates capillary levels for each gas, at 37° C. […] Cells were assessed for cell proliferation using EdU cell proliferation staining. […] Cells were permeabilized with 30 μL of filtered 0.5% Triton X-100 in PBS for 20 minutes at room temperature. Samples were washed twice gently with PBS. Cells were stained utilizing click-iT chemistry by adding 20 μL of staining cocktail containing 2 mM copper sulfate, 8 μM sulfo-Cy5-azide, and 20 mg/ml ascorbic acid in PBS and incubated 30-60 minutes at room temperature in dark. […] Plates were imaged with the Molecular Devices Pico ImageXpress. Images were segmented and percentage of cells with EdU incorporation was quantified to calculate antiproliferative effects of the drugs.
(§2) Five (5)-ethynyl-2′-deoxyuridine (EdU) data was represented as percentage EdU positive cells quantified by high content imaging from the Molecular Devices ImageXpress® Pico.

[2] = system: CORL23 cells; experiment: 3D-TGA; assay type: cell-based; settings: Homo sapiens, COR-L23, CORL23, LUN, KRAS G12V, ALK R317T, agent alone
Experimental: as §1, §2

[3] = system: NCI-H2087 cells; experiment: 3D-TGA; assay type: cell-based; settings: Homo sapiens, NCI-H2087, LUN, NRAS Q61K, ALK S553A, agent alone
Experimental: as §1, §2

[4] = system: CL-40 cells; experiment: 3D-TGA; assay type: cell-based, human; settings: Homo sapiens, read-out: IC50 in 3D-TGA, agent alone
Experimental: as §1, §2

[5] = system: HT-29 cells; experiment: 3D-TGA; assay type: cell-based, human; settings: Homo sapiens, HT-29, read-out: IC50 in 3D-TGA, agent alone
Experimental: as §1, §2

[6] = system: LS1034 cells; experiment: 3D-TGA; assay type: cell-based, human; settings: Homo sapiens, LS-1034; LS1034, COL, KRAS A146T; read-out: IC50 in 3D-TGA, agent alone
Experimental: as §1, §2

[7] = system: PANC-1 cells; experiment: 3D-TGA; assay type: cell-based, human; settings: Homo sapiens; PANC-1, PAN, KRAS G12D; read-out: IC50 in 3D-TGA, agent alone
Experimental: as §1, §2

[8] = system: RCM-1 cells; experiment: 3D-TGA; assay type: cell-based, human; settings: Homo sapiens, RCM-1, read-out: IC50 in 3D-TGA, agent alone
Experimental: as §1, §2

[9] = system: SNU-1197 cells; experiment: 3D-TGA; assay type: cell-based, human; settings: Homo sapiens, read-out: IC50 in 3D-TGA, agent alone
Experimental: as §1, §2

[10] = system: SW626 cells; experiment: 3D-TGA; assay type: cell-based, human; settings: Homo sapiens, SW626, read-out: IC50 in 3D-TGA, agent alone
Experimental: as §1, §2

[11] = system: A549 cells; experiment: 3D-TGA; assay type: cell-based, human; settings: Homo sapiens; A549, LUN, KRAS G12S; agent alone; read-out: IC50 in 3D-TGA Talazoparib
Experimental: as §1, §2

[12] = system: NCI-H1792 cells; experiment: 3D-TGA; assay type: cell-based, human; settings: Homo sapiens, NCI-H1792, LUN, KRAS G12C
[13] = system: HCC-44 cells; experiment: 3D-TGA; assay type: cell-based, human; settings: Homo sapiens, HCC44, read-out: IC50 in 3D-TGA, KRAS G12C inhibitor alone
Experimental: as §1, §2

[14] = system: LU99 cells; experiment: 3D-TGA; assay type: cell-based, human; settings: Homo sapiens, Lu-99, read-out: IC50 in 3D-TGA, KRAS G12C inhibitor alone
Experimental: as §1, §2

[15] = system: NCI-H2030 cells; experiment: 3D-TGA; assay type: cell-based, human; settings: Homo sapiens, NCI-H2030, read-out: IC50 in 3D-TGA, KRAS G12C inhibitor alone
Experimental: as §1, §2

[16] = system: NCI-H2122 cells; experiment: 3D-TGA; assay type: cell-based, human; settings: Homo sapiens, NCI-H2122, read-out: IC50 in 3D-TGA, KRAS G12C inhibitor alone
Experimental: as §1, §2

[17] = system: NCI-H358 cells; experiment: 3D-TGA; assay type: cell-based, human; settings: Homo sapiens; NCI-H358, LUN, KRAS G12C; read-out: IC50 in 3D-TGA, KRAS G12C inhibitor alone
[18] = system: MIA PaCa-2 (KRAS G12C) pancreatic xenograft; experiment: MIA PaCa-2 pancreatic xenograft tumor model; assay type: in vivo, athymic nude mice; settings: MIA PaCa-2 KRAS G12C xenograft, 21 days
Excerpt: Gemcitabine (antimetabolite), nab-paclitaxel (taxane) and fluorouracil (5-FU; antimetabolite) were commercially purchased. All studies started with 12 animals, per group. Mice within specific groups randomized for cross-over of treatments (≥day 42). […] Additive models: MIA PaCa-2, PA-TU-8988S, CFPAC-1, HPAF-II, Panc 03.27, PSN-1, Panc 10.05, Capan-1, HPAC, PANC-1.

[19] = read-out: IC50 in 3D-TGA Brigatinib
[20] = read-out: IC50 in 3D-TGA Lorlatinib
[21] = read-out: IC50 in 3D-TGA, KRAS G12C inhibitor alone

Nc1ncn([C@@H]2O[C@H](CO)[C@@H](O)[C@H]2O)c(=O)n1 [Azacitidine, azacitidine] showed an IC50 ([1]; HL-60, HL-60, AML, NRAS Q61L, read-out: IC50 in 3D-TGA Azacitidine) of 1 µM, an IC50 ([1]; KHM-1B, MM, NRAS G12C/KRAS G12C, read-out: IC50 in 3D-TGA Azacitidine) of 0.1 to 0.5 µM and an IC50 ([1]; NB4, AML, KRAS Amp, read-out: IC50 in 3D-TGA Azacitidine) of 1 µM. It also gave an IC50 ([1]; OCI-AML-3, OCI-AML3, AML, NRAS Q61L, read-out: IC50 in 3D-TGA Azacitidine) of 1 µM, an IC50 ([1]; PL-21, PL-21, AML, KRAS A146V, read-out: IC50 in 3D-TGA Azacitidine) of 0.5 to 1 µM and an IC50 ([1]; TF-1, AML, NRAS Q61P, read-out: IC50 in 3D-TGA Azacitidine) of 1 µM. The IC50 ([1]; THP-1, THP-1, AML, NRAS G12D, read-out: IC50 in 3D-TGA Azacitidine) was 1 µM.
CC(C)C[C@H](NC(=O)[C@H](Cc1ccccc1)NC(=O)c1cnccn1)B(O)O [Bortezomib, bortezomib] gave an IC50 ([1]; KHM-1B, MM, NRAS G12C/KRAS G12C, read-out: IC50 in 3D-TGA Bortezomib) of 0.5 to 1 µM, an IC50 ([1]; L-363, L-363, MM, NRAS Q61H, read-out: IC50 in 3D-TGA Bortezomib) of 1 µM and an IC50 ([1]; MM1.S, MM.1S, MM, KRAS G12A, read-out: IC50 in 3D-TGA Bortezomib) of 0.05 to 0.1 µM. It also gave an IC50 ([1]; RPMI-8226, RPMI-8226, MM, KRAS G12A, read-out: IC50 in 3D-TGA Bortezomib) of 0.1 to 0.5 µM.
With COc1cc(N2CCC(N3CCN(C)CC3)CC2)ccc1Nc1ncc(Cl)c(Nc2ccccc2P(C)(C)=O)n1 [Brigatinib, brigatinib] the IC50 [2, 19] was 1 µM and the IC50 [3, 19] was 1 µM.
Compound COc1cccc2c1C(=O)c1c(O)c3c(c(O)c1C2=O)C[C@@](O)(C(C)=O)C[C@@H]3O[C@H]1C[C@H](N)[C@H](O)[C@H](C)O1 [Daunorubicin, daunorubicin] has an IC50 ([1]; HL-60, HL-60, AML, NRAS Q61L, read-out: IC50 in 3D-TGA Daunorubicin) of 0.0676 µM, an IC50 ([1]; NB4, AML, KRAS Amp, read-out: IC50 in 3D-TGA Daunorubicin) of 0.0632 µM and an IC50 ([1]; OCI-AML-3, OCI-AML3, AML, NRAS Q61L, read-out: IC50 in 3D-TGA Daunorubicin) of 0.028 µM. It also gave an IC50 ([1]; PL-21, PL-21, AML, KRAS A146V, read-out: IC50 in 3D-TGA Daunorubicin) of 0.0641 µM, an IC50 ([1]; TF-1, AML, NRAS Q61P, read-out: IC50 in 3D-TGA Daunorubicin) of 0.0562 µM and an IC50 ([1]; THP-1, THP-1, AML, NRAS G12D, read-out: IC50 in 3D-TGA Daunorubicin) of 0.119 µM.
Nc1ncn([C@H]2C[C@H](O)[C@@H](CO)O2)c(=O)n1 [Decitabine, decitabine] gave an IC50 ([1]; HL-60, HL-60, AML, NRAS Q61L, read-out: IC50 in 3D-TGA Decitabine) of 1 µM, an IC50 ([1]; NB4, AML, KRAS Amp, read-out: IC50 in 3D-TGA Decitabine) of 1 µM and an IC50 ([1]; OCI-AML-3, OCI-AML3, AML, NRAS Q61L, read-out: IC50 in 3D-TGA Decitabine) of 1 µM. The IC50 ([1]; PL-21, PL-21, AML, KRAS A146V, read-out: IC50 in 3D-TGA Decitabine) was 1 µM, the IC50 ([1]; TF-1, AML, NRAS Q61P, read-out: IC50 in 3D-TGA Decitabine) was 0.05 µM and the IC50 ([1]; THP-1, THP-1, AML, NRAS G12D, read-out: IC50 in 3D-TGA Decitabine) was 1 µM.
With C[C@H]1Oc2cc(cnc2N)-c2c(nn(C)c2C#N)CN(C)C(=O)c2ccc(F)cc21 [Lorlatinib] the IC50 [2, 20] was 1 µM and the IC50 [3, 20] was 1 µM.
With CC(=O)O[C@H]1C(=O)[C@@]2(C)[C@H]([C@H](OC(=O)c3ccccc3)[C@]3(O)C[C@H](OC(=O)[C@H](O)[C@@H](NC(=O)c4ccccc4)c4ccccc4)C(C)=C1C3(C)C)[C@]1(OC(C)=O)CO[C@@H]1C[C@@H]2O [Paclitaxel, paclitaxel] the IC50 [4] was < 0.05 µM, the IC50 [5] was < 0.05 µM and the IC50 [6] was 1 µM. For the same compound, the IC50 [7] was 1 µM, the IC50 [8] was 0.1 to 0.5 µM and the IC50 [9] was 0.1 to 0.5 µM. For the same compound, the IC50 [10] was < 0.05 µM.
Cn1ncnc1[C@H]1c2n[nH]c(=O)c3cc(F)cc(c23)N[C@@H]1c1ccc(F)cc1 [Talazoparib, talazoparib] was tested, and the IC50 ([1]; HL-60, HL-60, AML, NRAS Q61L, read-out: IC50 in 3D-TGA Talazoparib) was > 1 µM, the IC50 ([1]; NCI-H1734, NCI-H1734, LUN, KRAS G13C, read-out: IC50 in 3D-TGA Talazoparib) was > 1 µM and the IC50 ([1]; THP-1, THP-1, AML, NRAS G12D, read-out: IC50 in 3D-TGA Talazoparib) was > 1 µM. The IC50 [11] was > 1 µM and the IC50 ([12]; agent alone, read-out: IC50 in 3D-TGA Talazoparib) was 0.5 to 1 µM.
For C=C(F)C(=O)N1CCN(c2nc(OC[C@@H]3CCCN3C)nc3c2CCN(c2cccc4cccc(Cl)c24)C3)C[C@@H]1CC#N [adagrasib], the IC50 [13] was > 1 µM, the IC50 [14] was > 1 µM and the IC50 [15] was < 0.05 µM. The IC50 [16] was > 1 µM, the IC50 [17] was 0.05 to 0.1 µM and the IC50 [12, 21] was > 1 µM.
In the case of C=CC(=O)N1CCN(c2nc(=O)n(-c3c(C)ccnc3C(C)C)c3nc(-c4c(O)cccc4F)c(F)cc23)[C@@H](C)C1 [sotorasib], the BWL [18] is reported as “insignificant BWL”, the IC50 [13] is reported as > 1 µM and the IC50 [14] is reported as > 1 µM. The IC50 [15] was < 0.05 µM, the IC50 [16] was > 1 µM and the IC50 [17] was 0.1 to 0.5 µM. The IC50 [12, 21] was > 1 µM.
